Tested on: 994946-033-R-J1-PDC complex spheroid viability
Assay: Anticancer human tumor 994946-033-R-J1-PDC patient-derived melanoma cell line growth inhibition [POLQ]
Conditions: for IC50: curve of first compound; for viability, T/C: stronger effect = lower value; active = viability on the fitted dose curve at most 10% of control; inactive = the rest
Protocol: Multicellular complex tumor spheroid response to Polymerase (POL) inhibitors (novobiocin, ART-558, RP6685) in combination with a variety of drugs and investigational agents in selected tumor cell lines
The POL inhibitors (novobiocin, ART-558, and RP6685) were evaluated both individually and in combination with standard of care and investigational anticancer small molecules within a complex spheroid model of solid tumors. . Complex spheroids include a stromal component modeled by human endothelial cells (HUVEC) and fibroblasts modeled by human mesenchymal stem cells (MSCs). The concentration ranges selected for each drug and investigational agent were based upon clinically achievable concentrations if the clinical Cmax of the agent was known.
Compounds. The drugs and investigational agents: novobiocin (NSC847541), ART-558 (NSC835418), RP-6685 (NSC848927), peposertib (NSC802822), ceralasertib (NSC780249), elimusertib (NSC800525), camonsertib (NSC841442), AZD-1390 (NSC803789), olaparib (NSC753686), talazoparib (NSC767125), rucaparib (NSC756644), sotorasib (NSC818433), MRTX-1133 (NSC836407), SN-38 (NSC673596), topotecan (NSC609699), epotoside (NSC141540), doxorubicin (NSC123127), gemcitabine (NSC613327), 5-fluorouracil (NSC19893), paclitaxel (NSC125973), vemurafenib (NSC761431), MSA-2 (NSC828583), SN-011 (NSC837082), adavosertib (NSC754352), prexasertib (NSC758257), carboplatin (NSC241240) and oxaliplatin (NSC266046), were obtained from the National Cancer Institute (NCI) Developmental Therapeutics Program Chemical Repository (21). The FDA-approved anticancer drug set is available from the Developmental Therapeutics Program at https://dtp.cancer.gov/organization/dscb/obtaining/. […] The stock solutions were prepared in dimethyl sulfoxide (DMSO, Sigma-Aldrich, St. Louis, MO, cat. D2650), except for the platinum compounds which were prepared in saline (Quality Biological, Gaithersburg, MD, cat. 114-055-101), at 800-fold the tested concentration and stored at -70 degrees C prior to their use. All drugs and investigational agents were tested over a range starting from a high concentration at or near the clinical Cmax and decreasing in half-log increments. If the clinical Cmax for an agent had not been determined, the highest concentration tested was 10 microM, except for SN-38, which was tested at a high concentration of 1 microM.
Cell Culture. All cells were maintained in an incubator at 37 degrees C and 5% CO2 with 95% humidity. The PDC lines were cultured according to standard operating procedures established by the NCI PDMR (https://pdmr.cancer.gov). Table 3 of the manuscript, lists the cell lines along with the number of the three cell types plated to form the mct-spheroids and media for tumor cell growth. After thawing, all PDC lines, except 997537-175-T-J1-PDC and 415267-285-R-J2-PDC, were cultured in Matrigel-coated flasks prepared with a working solution of 1X Ham's F-12 nutrient mix, without supplementation (Thermo Fisher Scientific, cat. 11765054), 100 U/mL penicillin-streptomycin (Thermo Fisher Scientific, cat. 15140122), and 2.5% Matrigel (Corning Inc., Corning, NY, cat. 354248) for the first three passages. The two PDC lines 997537-175-T-J1-PDC and 415267-285-R-J2-PDC were cultured on uncoated flasks. The 857933-349-R-J2-PDC line was cultured in 6C/Colon 1B media containing advanced DMEM/F-12 (Thermo Fisher Scientific, cat. 12634028), 10 mM HEPES (Thermo Fisher Scientific, cat. 15630080), 1X GlutaMAX supplement (Thermo Fisher Scientific, cat. 35050061), 0.1 mg/mL primocin (InvivoGen, San Diego, CA, cat. ant-pm-2), 10% defined fetal bovine serum, heat inactivated (HyClone Laboratories Inc., Logan, UT, cat. SH30070.03HI), 50% L-WRN conditioned media (ATCC, cat. CRL-3276), 1.25 mM N-Acetyl-L-cysteine (Sigma-Aldrich, cat. A9165), 10 mM nicotinamide (Sigma-Aldrich, cat. N0636), 1X B-27 supplement (Thermo Fisher Scientific, cat. 17504044), 1X N-2 supplement (Thermo Fisher Scientific, cat. […]

[1] = second compound 0.0316 µM, first compound 0.0316 µM
[2] = second compound 0.0316 µM, first compound 0.1 µM
[3] = second compound 0.0316 µM, first compound 0.316 µM
[4] = second compound 0.0316 µM, first compound 1 µM
[5] = second compound 0.1 µM, first compound 0.0316 µM
[6] = second compound 0.1 µM, first compound 0.1 µM
[7] = second compound 0.1 µM, first compound 0.316 µM
[8] = second compound 0.1 µM, first compound 1 µM
[9] = second compound 0.316 µM, first compound 0.0316 µM
[10] = second compound 0.316 µM, first compound 0.1 µM
[11] = second compound 0.316 µM, first compound 0.316 µM
[12] = second compound 0.316 µM, first compound 1 µM
[13] = second compound 1 µM, first compound 0.0316 µM
[14] = second compound 1 µM, first compound 0.1 µM
[15] = second compound 1 µM, first compound 0.316 µM
[16] = second compound 1 µM, first compound 1 µM
[17] = second compound 3.16 µM, first compound 0.0316 µM
[18] = second compound 3.16 µM, first compound 0.1 µM
[19] = second compound 3.16 µM, first compound 0.316 µM
[20] = second compound 3.16 µM, first compound 1 µM
[21] = second compound 10 µM, first compound 0.0316 µM
[22] = second compound 10 µM, first compound 0.1 µM
[23] = second compound 10 µM, first compound 0.316 µM
[24] = second compound 10 µM, first compound 1 µM
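Note: spheroids exposed to drugs for 7 days.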
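Throughout, for viability, T/C: 100% = DMSO vehicle treated spheroids.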

COc1cc(C2c3cc4c(cc3C(OC3OC5COC(C)OC5C(O)C3O)C3COC(=O)C23)OCO4)cc(OC)c1O (centres undefined) + COC1C(OC(N)=O)C(O)C(Oc2ccc3c(O)c(NC(=O)c4ccc(O)c(CC=C(C)C)c4)c(=O)oc3c2C)OC1(C)C
active: viability, T/C (second compound 0.0316 µM, first compound 10 µM) 6.71% | viability, T/C (second compound 0.1 µM, first compound 10 µM) 7.35% | viability, T/C (second compound 0.316 µM, first compound 10 µM) 6.69% | viability, T/C (second compound 1 µM, first compound 10 µM) 7.04% | viability, T/C (second compound 3.16 µM, first compound 10 µM) 7.78% | viability, T/C (second compound 10 µM, first compound 10 µM) 5.69%
588 nM: IC50 (second compound 10 µM)
539 nM: IC50 (second compound 1 µM)
690 nM: IC50 (second compound 0.0316 µM)
254 nM: IC50 (second compound 0.316 µM)
274 nM: IC50 (second compound 3.16 µM)
inactive: viability, T/C [1] 77.1% | viability, T/C [2] 78.6% | viability, T/C [3] 46% | viability, T/C [4] 61% | viability, T/C (second compound 0.0316 µM, first compound 3.16 µM) 12.8% | viability, T/C [5] 95.9% | viability, T/C [6] 58.9% | viability, T/C [7] 44% | viability, T/C [8] 38.7% | viability, T/C (second compound 0.1 µM, first compound 3.16 µM) 13% | viability, T/C [9] 118% | viability, T/C [10] 70.7% | viability, T/C [11] 40.2% | viability, T/C [12] 36.7% | viability, T/C (second compound 0.316 µM, first compound 3.16 µM) 14.5% | viability, T/C [13] 88.3% | viability, T/C [14] 67.1% | viability, T/C [15] 63.5% | viability, T/C [16] 41.2% | viability, T/C (second compound 1 µM, first compound 3.16 µM) 18.5% | viability, T/C [17] 109% | viability, T/C [18] 60.7% | viability, T/C [19] 53.2% | viability, T/C [20] 36.3% | viability, T/C (second compound 3.16 µM, first compound 3.16 µM) 10.2% | viability, T/C [21] 111% | viability, T/C [22] 70.2% | viability, T/C [23] 57.8% | viability, T/C [24] 52.3% | viability, T/C (second compound 10 µM, first compound 3.16 µM) 14.9%
237 nM: IC50 (second compound 0.1 µM)

COc1cccc(OCCCN)c1-c1cc(Nc2cnc(C#N)cn2)n[nH]1 + Cc1cccc(N(C)C(=O)C2C(O)CCN2c2nc(C)cc(C(F)(F)F)c2C#N)c1
17.7 nM: IC50 (second compound 0.316 µM)
14.3 nM: IC50 (second compound 3.16 µM)
79.8 nM: IC50 (second compound 10 µM)
25.6 nM: IC50 (second compound 0.0316 µM)
inactive: viability, T/C (second compound 0.0316 µM, first compound 0.00316 µM) 96% | viability, T/C (second compound 0.0316 µM, first compound 0.01 µM) 93.4% | viability, T/C [1] 40.3% | viability, T/C [2] 22.7% | viability, T/C [3] 22% | viability, T/C [4] 17.4% | viability, T/C (second compound 0.1 µM, first compound 0.00316 µM) 99.8% | viability, T/C (second compound 0.1 µM, first compound 0.01 µM) 60.3% | viability, T/C [5] 29.9% | viability, T/C [6] 19% | viability, T/C [7] 19.1% | viability, T/C [8] 18.6% | viability, T/C (second compound 0.316 µM, first compound 0.00316 µM) 76.6% | viability, T/C (second compound 0.316 µM, first compound 0.01 µM) 68.5% | viability, T/C [9] 31.3% | viability, T/C [10] 20.1% | viability, T/C [11] 24.2% | viability, T/C [12] 12.4% | viability, T/C (second compound 1 µM, first compound 0.00316 µM) 120% | viability, T/C (second compound 1 µM, first compound 0.01 µM) 44.5% | viability, T/C [13] 36.8% | viability, T/C [14] 33.1% | viability, T/C [15] 27% | viability, T/C [16] 18.6% | viability, T/C (second compound 3.16 µM, first compound 0.00316 µM) 88.9% | viability, T/C (second compound 3.16 µM, first compound 0.01 µM) 51% | viability, T/C [17] 46.8% | viability, T/C [18] 18.1% | viability, T/C [19] 28.9% | viability, T/C [20] 18.5% | viability, T/C (second compound 10 µM, first compound 0.00316 µM) 68% | viability, T/C (second compound 10 µM, first compound 0.01 µM) 57.6% | viability, T/C [21] 86.7% | viability, T/C [22] 44.9% | viability, T/C [23] 38.2% | viability, T/C [24] 23.5%
9.64 nM: IC50 (second compound 1 µM)
14.7 nM: IC50 (second compound 0.1 µM)

Reference: PubChem BioAssay AID1963827 (Molecular Pharmacology Branch, DTP, NCI, 2024)
